Values joined by “and” are separate entries in the source; they are usually repeats but may differ in a detail not shown here. Identical values can stand only once. “Also recorded” adds a separate entry of the source.
Columns and labels:
[1] = biological target: T1, 5-HT1A receptor (Homo sapiens, UniProt P08908); assay: cAMP-Glo assay of 5-HT1A receptor modulation in CHO-K1/5-HT1A/Ga15 cells; assay type: cell-based; conditions: +5-HT1A vs −5-HT1A cells, 4 mM forskolin, increasing ligand concentrations
T1 construct: host or cells: CHO-K1 (co-expressing Ga15)
T1 sequence (P08908 1-422): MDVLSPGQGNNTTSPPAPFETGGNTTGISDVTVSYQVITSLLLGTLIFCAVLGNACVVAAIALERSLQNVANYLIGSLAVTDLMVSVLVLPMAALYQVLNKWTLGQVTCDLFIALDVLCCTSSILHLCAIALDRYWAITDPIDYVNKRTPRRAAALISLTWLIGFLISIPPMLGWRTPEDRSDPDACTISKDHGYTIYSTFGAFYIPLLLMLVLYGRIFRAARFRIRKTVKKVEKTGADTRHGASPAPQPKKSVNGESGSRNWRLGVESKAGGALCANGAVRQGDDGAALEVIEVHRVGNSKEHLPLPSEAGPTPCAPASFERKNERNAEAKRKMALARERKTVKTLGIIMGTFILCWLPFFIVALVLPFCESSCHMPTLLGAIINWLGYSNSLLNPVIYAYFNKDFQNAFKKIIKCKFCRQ

[2] = biological target: T2, 5-HT2A receptor (Mus musculus, UniProt P35363); assay: Drug-induced Head Twitch Response (HTR) in mice; assay type: in vivo, C57BL/6-Elite mice; conditions: 1 mg/kg i.p.; for Head Twitch Response (HTR): 15-to-30-minute window post-drug, relative to vehicle
T2 construct: tissue Charles River; host or cells: living C57BL/6-Elite mice (brain, in vivo)
T2 sequence (P35363 whole entry): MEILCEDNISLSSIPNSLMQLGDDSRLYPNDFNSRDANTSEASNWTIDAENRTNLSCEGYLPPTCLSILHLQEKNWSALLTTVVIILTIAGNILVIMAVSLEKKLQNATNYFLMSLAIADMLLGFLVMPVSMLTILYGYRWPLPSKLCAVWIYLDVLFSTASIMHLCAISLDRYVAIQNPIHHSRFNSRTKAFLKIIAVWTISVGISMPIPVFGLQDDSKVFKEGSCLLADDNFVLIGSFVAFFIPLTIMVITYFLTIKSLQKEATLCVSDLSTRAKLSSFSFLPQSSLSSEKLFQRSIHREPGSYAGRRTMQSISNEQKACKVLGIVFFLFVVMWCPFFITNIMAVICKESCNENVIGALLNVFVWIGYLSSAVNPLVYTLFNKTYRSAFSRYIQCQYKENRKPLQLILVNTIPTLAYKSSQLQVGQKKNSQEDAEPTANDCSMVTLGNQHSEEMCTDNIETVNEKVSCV

[3] = In vitro metabolic stability / psilocin release assays (liver, intestinal, serum fractions, buffer)
[4] = Mouse PK study: plasma parent compound and psilocin metabolite after dosing of the labelled compound; conditions: for Plasma concentration of psilocybin / Plasma concentration of E(VI) / AUC0-tlast/Dose of E(VI): 1 mg/kg i.v.
[5] = biological target: AVPR1A (Homo sapiens, UniProt P37288); assay: SAFETYscan calcium secondary messenger assay, AVPR1A; assay type: cell-based
Sequence of AVPR1A (P37288 whole entry): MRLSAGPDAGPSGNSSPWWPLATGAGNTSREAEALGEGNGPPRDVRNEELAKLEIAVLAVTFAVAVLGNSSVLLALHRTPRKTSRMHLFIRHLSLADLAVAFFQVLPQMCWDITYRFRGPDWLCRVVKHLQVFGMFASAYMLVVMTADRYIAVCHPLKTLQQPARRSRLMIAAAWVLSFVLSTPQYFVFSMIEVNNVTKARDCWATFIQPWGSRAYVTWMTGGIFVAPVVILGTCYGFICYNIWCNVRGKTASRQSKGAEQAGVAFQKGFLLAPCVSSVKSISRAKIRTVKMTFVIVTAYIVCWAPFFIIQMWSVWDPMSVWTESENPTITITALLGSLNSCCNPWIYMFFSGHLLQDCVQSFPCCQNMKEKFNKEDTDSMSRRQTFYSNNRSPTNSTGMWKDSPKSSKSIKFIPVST

[6] = biological target: T3, MAO-A (Homo sapiens, UniProt P21397); assay: SAFETYscan MAO-A enzyme assay; assay type: biochemical
T3 construct: purchased Sigma
T3 sequence (P21397 1-527): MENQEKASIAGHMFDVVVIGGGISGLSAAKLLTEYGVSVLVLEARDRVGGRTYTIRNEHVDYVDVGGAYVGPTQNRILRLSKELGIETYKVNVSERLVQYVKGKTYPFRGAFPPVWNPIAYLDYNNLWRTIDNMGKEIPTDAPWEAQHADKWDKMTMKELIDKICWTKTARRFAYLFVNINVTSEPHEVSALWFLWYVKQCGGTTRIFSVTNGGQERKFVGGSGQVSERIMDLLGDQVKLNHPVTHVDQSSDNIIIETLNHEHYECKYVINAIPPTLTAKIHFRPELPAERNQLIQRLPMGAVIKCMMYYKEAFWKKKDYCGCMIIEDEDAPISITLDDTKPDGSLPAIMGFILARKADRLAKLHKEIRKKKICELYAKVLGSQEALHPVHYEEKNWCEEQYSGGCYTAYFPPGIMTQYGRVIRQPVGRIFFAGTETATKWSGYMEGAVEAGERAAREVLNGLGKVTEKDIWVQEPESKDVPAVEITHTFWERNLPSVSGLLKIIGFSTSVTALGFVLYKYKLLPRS

[7] = 3 mg/kg oral, 24 h, individual mice, BLQ = below 0.2 ng/mL
[8] = oral doses, any dose / timepoint

NCCc1c[nH]c2ccc(O)cc12 [serotonin]
5-HT1A receptor modulation (change in % cAMP) [1]: reduction in cAMP levels

CN(C)CCc1c[nH]c2cccc(O)c12 [psilocin]
5-HT1A receptor modulation (change in % cAMP) [1]: reduction in cAMP levels

CN(C)CCc1c[nH]c2cccc(OC(=O)OCc3ccccc3)c12 [B(II)]
Head Twitch Response (HTR) [2]: elicit head twitching | dissociation to psilocin ([3]; HLM, HLS9, HIM, HIS9, AB serum, buffer control (any conditions)): did not readily dissociate to psilocin under any conditions | detection of parent compound in plasma after oral administration ([4]; 1 mg/kg oral): neither B(II) nor E(VI) were detected in plasma | Plasma concentration of psilocin ([4]; 1 mg/kg oral, 0.25 h, mean ± SD): 19.7 ± 5.50 ng/mL | Plasma concentration of psilocin ([4]; 1 mg/kg oral, 0.5 h, mean ± SD): 11.9 ± 2.03 ng/mL | Plasma concentration of psilocin ([4]; 1 mg/kg oral, 1 h, mean ± SD): 4.63 ± 0.788 ng/mL | Plasma concentration of psilocin ([4]; 1 mg/kg oral, 2 h, mean ± SD): 2.20 ± 0.850 ng/mL | Plasma concentration of psilocin ([4]; 1 mg/kg oral, 4 h, mean ± SD): 2.05 ± 0.359 ng/mL | Plasma concentration of psilocin ([4]; 1 mg/kg oral, 6 h, mean ± SD): 0.739 ± 0.288 ng/mL | Plasma concentration of psilocin ([4]; 1 mg/kg oral, 8 h, mean ± SD): 0.453 ± 0.0460 ng/mL | Cmax/Dose of psilocin ([4]; 1 mg/kg oral, dose of administered compound used, mean ± SD): 19.7 ± 5.50 kg·ng/mL/mg | Plasma concentration of psilocin ([4]; 3 mg/kg oral, 0.25 h, mean ± SD): 55.6 ± 8.67 ng/mL | Plasma concentration of psilocin ([4]; 3 mg/kg oral, 0.5 h, mean ± SD): 32.3 ± 4.98 ng/mL | Plasma concentration of psilocin ([4]; 3 mg/kg oral, 1 h, mean ± SD): 9.29 ± 3.05 ng/mL | Plasma concentration of psilocin ([4]; 3 mg/kg oral, 2 h, mean ± SD): 7.67 ± 0.921 ng/mL | Plasma concentration of psilocin ([4]; 3 mg/kg oral, 4 h, mean ± SD): 6.76 ± 2.13 ng/mL | Plasma concentration of psilocin ([4]; 3 mg/kg oral, 6 h, mean ± SD): 2.41 ± 0.845 ng/mL | Plasma concentration of psilocin ([4]; 3 mg/kg oral, 8 h, mean ± SD): 0.722 ± 0.368 ng/mL | AUC0-tlast/Dose of psilocin ([4]; 3 mg/kg oral, dose of administered compound used, mean ± SD): 20.3 ± 2.78 kg·ng·h/mL/mg | time parent compound resides in plasma post-dosing ([4]; 10 mg/kg oral): up to 4 hours | Plasma concentration of psilocin ([4]; 10 mg/kg oral, 0.25 h, mean ± SD): 306 ± 34.6 ng/mL | Plasma concentration of psilocin ([4]; 10 mg/kg oral, 0.5 h, mean ± SD): 125 ± 16.3 ng/mL | Plasma concentration of psilocin ([4]; 10 mg/kg oral, 1 h, mean ± SD): 49.6 ± 10.5 ng/mL | Plasma concentration of psilocin ([4]; 10 mg/kg oral, 2 h, mean ± SD): 20.7 ± 1.42 ng/mL | Plasma concentration of psilocin ([4]; 10 mg/kg oral, 4 h, mean ± SD): 31.4 ± 6.34 ng/mL | Plasma concentration of psilocin ([4]; 10 mg/kg oral, 6 h, mean ± SD): 11.5 ± 1.43 ng/mL | Plasma concentration of psilocin ([4]; 10 mg/kg oral, 8 h, mean ± SD): 6.38 ± 2.98 ng/mL | Cmax/Dose of psilocin ([4]; 10 mg/kg oral, dose of administered compound used, mean ± SD): 30.6 ± 3.46 kg·ng/mL/mg | psilocin levels / exposure compared with E(VI)-treated mice ([4]; oral dosing, Tables 16 and 17): higher psilocin levels

CN(C)CCc1c[nH]c2cccc(OP(=O)(O)O)c12 [psilocybin]
stability ([3]; assay buffer (enzyme-free control)): stability of psilocybin was confirmed in assay buffer | stability and conversion to psilocin ([3]; liver fractions (HLM, HLS9)): stable in liver fractions with no conversion to psilocin | Plasma concentration of psilocybin ([4]; 0.5 h, individual mice, No Peak = no detectable compound by LC-MS): No Peak and 2.35 ng/mL and 6.21 ng/mL | Plasma concentration of psilocybin ([4]; 0.5 h, mean): 4.28 (n = 2) ng/mL | Plasma concentration of psilocybin ([4]; 1 h, individual mice, No Peak = no detectable compound by LC-MS): No Peak (2×) and 1.21 ng/mL | Plasma concentration of psilocybin ([4]; 1 h, mean): 1.21 (n = 1) ng/mL | Plasma concentration of psilocybin ([4]; 2 h, individual mice, No Peak = no detectable compound by LC-MS): No Peak | Plasma concentration of psilocybin ([4]; 4 h, individual mice, No Peak = no detectable compound by LC-MS): No Peak | Plasma concentration of psilocybin ([4]; 6 h, individual mice, No Peak = no detectable compound by LC-MS): No Peak | Plasma concentration of psilocybin ([4]; 8 h, individual mice, No Peak = no detectable compound by LC-MS, bolded value considered an outlier): No Peak (2×) and 2.54 ng/mL | Plasma concentration of psilocin ([4]; 1.56 mg/kg oral, 24 h, individual mice, BLQ = below 0.2 ng/mL): BLQ | Plasma concentration of psilocin [4, 7]: BLQ | detection of parent compound in plasma after oral administration [4, 8]: not detectable in orally administered animals at any dose

N[C@@H](Cc1c[nH]c2ccccc12)C(=O)O [tryptophan]
5-HT1A receptor modulation (change in % cAMP) [1]: no reduction in cellular cAMP levels

CN(C)CCc1c[nH]c2cccc(OC(=O)SCc3ccccc3)c12 [E(VI)]
5-HT1A receptor modulation (change in % cAMP) [1]: mild receptor modulation at higher ligand concentrations | Head Twitch Response (HTR) [2]: Elevated incidences of HTR; also recorded: elicit head twitching | HTR of E(VI) compared to B(II) ([2]; side-by-side (FIG. 4F)): elevated response | IC50 [5]: > 10 µM | IC50 [6]: > 10 µM | Plasma concentration of E(VI) ([4]; 5 min, individual mice, concentrations not considered accurate): 3.20 ng/mL and 59.0 ng/mL and 11.1 ng/mL | Plasma concentration of E(VI) ([4]; 5 min, mean ± SD, concentrations not considered accurate): 24.4 ± 30.2 ng/mL | Plasma concentration of E(VI) ([4]; 0.25 h, individual mice, concentrations not considered accurate): 72.1 ng/mL and 110 ng/mL and 7.79 ng/mL | Plasma concentration of E(VI) ([4]; 0.25 h, mean ± SD, concentrations not considered accurate): 63.3 ± 51.7 ng/mL | Plasma concentration of E(VI) ([4]; 0.5 h, individual mice, concentrations not considered accurate): 13.1 ng/mL and 9.29 ng/mL and 1.03 ng/mL | Plasma concentration of E(VI) ([4]; 0.5 h, mean ± SD, concentrations not considered accurate): 7.81 ± 6.17 ng/mL | Plasma concentration of E(VI) ([4]; 1 h, individual mice, concentrations not considered accurate): 3.14 ng/mL and 5.84 ng/mL and No Peak | Plasma concentration of E(VI) ([4]; 1 h, mean, concentrations not considered accurate): 4.49 ng/mL | Plasma concentration of E(VI) ([4]; 2 h, individual mice, values below LLOQ 1 ng/mL included): 0.776 ng/mL and 0.594 ng/mL and No Peak | Plasma concentration of E(VI) ([4]; 2 h, mean, concentrations not considered accurate): 0.685 ng/mL | Plasma concentration of E(VI) ([4]; 4 h, individual mice, BLQ = below 1 ng/mL): BLQ (2×) and No Peak | Plasma concentration of E(VI) ([4]; 6 h, individual mice, BLQ = below 1 ng/mL): No Peak (2×) and BLQ | Plasma concentration of E(VI) ([4]; 8 h, individual mice): No Peak | AUC0-tlast/Dose of E(VI) ([4]; individual mice): 20.4 kg·ng·h/mL/mg and 35.2 kg·ng·h/mL/mg and 3.40 kg·ng·h/mL/mg | AUC0-tlast/Dose of E(VI) ([4]; mean ± SD): 19.7 ± 15.9 kg·ng·h/mL/mg | detection of parent compound in plasma after oral administration ([4]; 1 mg/kg oral): neither B(II) nor E(VI) were detected in plasma | Plasma concentration of psilocin ([4]; 1 mg/kg oral, 8 h, individual mice, BLQ = below 0.2 ng/mL): BLQ | Plasma concentration of psilocin [4, 7]: No Peak (2×) and BLQ | Plasma concentration of psilocin ([4]; 10 mg/kg oral, 24 h, individual mice, BLQ = below 0.2 ng/mL): BLQ | detection of parent compound in plasma after oral administration [4, 8]: did not yield any detectable levels of E(VI); also recorded: never detected at any timepoint

From patent US20250206701A1
